Experimental data taken from US20170007553A1, “METHODS FOR THE PREVENTION AND TREATMENT OF CEREBRAL ISCHEMIA” (Edison Pharmaceuticals, Inc., priority 2009, published 2017).

Legend:
[1] = fraction of the activity of natural alpha-tocopherol; cited from earlier work
neuronal cells = details: nM/L concentrations; by suppressing early activation of c-Src kinase and 12-lipoxygenase; cited from earlier work
[2] = test system: cerebral ischemia induced in rats (MCAO); assay: Animal cerebral infarct assay, rat middle cerebral artery occlusion (MCAO) with reperfusion; assay type: in vivo; details: for reduction of total infarct size: gavage, 500 mg/kg
[3] = administered at the time of reperfusion, rats

Cc1cc(O)cc2c1O[C@](C)(CCC[C@H](C)CCC[C@H](C)CCCC(C)C)CC2 [Delta-tocopherol]
activity relative to natural alpha-tocopherol [1]: one hundredth

Cc1c(C)c2c(c(C)c1O)CC[C@@](C)(CCC[C@H](C)CCC[C@H](C)CCCC(C)C)O2 [alpha-tocopherol]
blocking of glutamate-induced death (neuronal cells): not

CC(C)=CCC/C(C)=C/CC/C(C)=C/CC[C@@](C)(O)CCC1=C(C)C(=O)C(C)=C(C)C1=O [alpha-tocotrienol quinone]
reduction of cerebral edema relative to controls [2, 3]: 40%
reduction of total infarct volume relative to controls [2, 3]: 40%
reduction of total ischemic damage relative to controls [2, 3]: 40%
reduction of total infarct size ([2]; administered at reperfusion): 40%
reduction of total infarct size ([2]; administered at the time of MCAO): 40%

alpha-tocotrienol
blocking of glutamate-induced death (neuronal cells): blocked glutamate-induced death
